Measured values: paper PMC4286194 (Biochemical Journal, 2015)

Columns and labels:
BTK [1] = molecular target: T1, BTK (Homo sapiens, UniProt Q06187); assay: Kinase profiling; type: biochemical
Target sequence in this assay (Q06187 whole entry): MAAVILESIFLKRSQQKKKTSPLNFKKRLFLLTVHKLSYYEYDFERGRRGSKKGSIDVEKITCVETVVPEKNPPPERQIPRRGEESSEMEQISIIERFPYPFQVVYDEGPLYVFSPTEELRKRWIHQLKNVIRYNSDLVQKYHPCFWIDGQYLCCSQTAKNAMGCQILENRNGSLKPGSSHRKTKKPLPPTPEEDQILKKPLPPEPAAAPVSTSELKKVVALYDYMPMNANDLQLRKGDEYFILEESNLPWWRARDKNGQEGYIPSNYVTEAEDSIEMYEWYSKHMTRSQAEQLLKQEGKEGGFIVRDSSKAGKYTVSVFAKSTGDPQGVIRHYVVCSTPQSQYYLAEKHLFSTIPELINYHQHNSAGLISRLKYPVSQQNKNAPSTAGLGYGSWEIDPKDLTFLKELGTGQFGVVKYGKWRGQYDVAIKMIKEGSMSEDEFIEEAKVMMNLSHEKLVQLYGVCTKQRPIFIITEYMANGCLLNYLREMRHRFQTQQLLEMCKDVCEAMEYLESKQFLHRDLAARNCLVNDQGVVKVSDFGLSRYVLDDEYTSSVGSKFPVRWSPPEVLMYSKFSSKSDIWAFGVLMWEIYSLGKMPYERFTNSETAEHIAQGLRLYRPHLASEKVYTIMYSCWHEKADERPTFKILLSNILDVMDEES

Lck = Lck (Homo sapiens, UniProt P06239); assay: Kinase profiling; type: biochemical
BRK = BRK (Homo sapiens, UniProt Q13882); assay: Kinase profiling; type: biochemical
EPH-B2 = EPH-B2 (Homo sapiens, UniProt P29323); assay: Kinase profiling; type: biochemical
STK33 = STK33 (Homo sapiens, UniProt Q9BYT3); assay: Kinase profiling; type: biochemical
BTK [2] = molecular target: T1, BTK; assay: Kinase assay, IC50 curve; type: biochemical; set-up: BTK (amino acids 2–659); His6 (N); made in house; host or cells: Sf9 insect cells; conditions: read-out: IC50 against BTK
Target sequence in this assay (Q06187 2-659, species assumed): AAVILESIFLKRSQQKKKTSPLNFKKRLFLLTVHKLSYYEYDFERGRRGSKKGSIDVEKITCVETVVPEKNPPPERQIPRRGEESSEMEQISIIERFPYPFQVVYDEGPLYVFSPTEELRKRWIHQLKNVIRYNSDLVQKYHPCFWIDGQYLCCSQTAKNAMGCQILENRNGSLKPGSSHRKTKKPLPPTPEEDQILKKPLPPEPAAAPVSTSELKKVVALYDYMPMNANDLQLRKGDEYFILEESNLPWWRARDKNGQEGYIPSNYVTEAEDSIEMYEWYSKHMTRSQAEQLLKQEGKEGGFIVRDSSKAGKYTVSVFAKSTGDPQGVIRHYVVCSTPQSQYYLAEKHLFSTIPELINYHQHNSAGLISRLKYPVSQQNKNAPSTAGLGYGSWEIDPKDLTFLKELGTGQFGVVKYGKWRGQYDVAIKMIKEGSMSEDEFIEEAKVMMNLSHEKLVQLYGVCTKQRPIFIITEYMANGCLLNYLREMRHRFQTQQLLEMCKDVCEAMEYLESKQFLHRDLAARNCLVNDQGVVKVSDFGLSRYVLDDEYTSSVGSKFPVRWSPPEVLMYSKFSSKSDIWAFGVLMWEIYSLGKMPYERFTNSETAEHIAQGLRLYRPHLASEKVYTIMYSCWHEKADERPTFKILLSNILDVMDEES

Sequence of BRK (Q13882 whole entry): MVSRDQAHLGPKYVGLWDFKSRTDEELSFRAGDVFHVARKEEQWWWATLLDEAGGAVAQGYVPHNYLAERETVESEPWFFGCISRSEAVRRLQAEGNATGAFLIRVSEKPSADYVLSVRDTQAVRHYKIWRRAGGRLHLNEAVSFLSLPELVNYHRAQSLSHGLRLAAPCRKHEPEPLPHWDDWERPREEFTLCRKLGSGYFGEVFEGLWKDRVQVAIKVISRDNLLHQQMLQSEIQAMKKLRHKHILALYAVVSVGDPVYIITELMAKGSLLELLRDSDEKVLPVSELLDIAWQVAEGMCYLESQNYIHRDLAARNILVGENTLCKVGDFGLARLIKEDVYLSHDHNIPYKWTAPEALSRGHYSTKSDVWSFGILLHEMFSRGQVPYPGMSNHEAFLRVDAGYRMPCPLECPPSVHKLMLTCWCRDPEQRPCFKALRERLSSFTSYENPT
Sequence of EPH-B2 (P29323 19-1055): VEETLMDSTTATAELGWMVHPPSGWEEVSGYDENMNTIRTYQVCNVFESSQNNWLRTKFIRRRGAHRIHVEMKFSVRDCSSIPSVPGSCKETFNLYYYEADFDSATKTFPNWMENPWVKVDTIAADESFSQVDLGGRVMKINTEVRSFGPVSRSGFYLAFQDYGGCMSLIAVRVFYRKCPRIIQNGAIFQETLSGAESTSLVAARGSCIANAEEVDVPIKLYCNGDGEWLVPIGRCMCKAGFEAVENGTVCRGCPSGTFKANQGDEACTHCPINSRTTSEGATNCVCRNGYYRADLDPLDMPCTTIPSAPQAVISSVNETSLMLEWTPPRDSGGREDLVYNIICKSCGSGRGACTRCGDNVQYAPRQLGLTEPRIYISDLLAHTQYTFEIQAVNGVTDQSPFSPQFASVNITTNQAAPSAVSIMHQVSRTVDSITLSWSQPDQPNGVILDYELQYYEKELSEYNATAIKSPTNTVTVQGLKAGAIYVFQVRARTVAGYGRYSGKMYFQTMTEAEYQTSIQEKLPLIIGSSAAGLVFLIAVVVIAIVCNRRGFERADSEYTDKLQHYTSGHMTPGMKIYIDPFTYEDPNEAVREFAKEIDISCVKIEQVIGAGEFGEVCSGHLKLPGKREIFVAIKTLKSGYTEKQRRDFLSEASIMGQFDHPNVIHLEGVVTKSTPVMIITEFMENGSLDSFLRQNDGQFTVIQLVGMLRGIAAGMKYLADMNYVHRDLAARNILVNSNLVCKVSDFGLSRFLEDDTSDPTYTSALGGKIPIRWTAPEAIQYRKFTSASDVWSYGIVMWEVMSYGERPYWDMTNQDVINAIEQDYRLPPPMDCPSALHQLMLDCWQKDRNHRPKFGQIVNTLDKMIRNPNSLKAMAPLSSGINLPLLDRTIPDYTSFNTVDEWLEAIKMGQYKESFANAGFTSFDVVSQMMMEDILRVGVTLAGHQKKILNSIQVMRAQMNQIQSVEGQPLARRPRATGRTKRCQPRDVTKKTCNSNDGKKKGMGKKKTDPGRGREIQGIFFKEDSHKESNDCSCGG
Sequence of Lck (P06239 whole entry): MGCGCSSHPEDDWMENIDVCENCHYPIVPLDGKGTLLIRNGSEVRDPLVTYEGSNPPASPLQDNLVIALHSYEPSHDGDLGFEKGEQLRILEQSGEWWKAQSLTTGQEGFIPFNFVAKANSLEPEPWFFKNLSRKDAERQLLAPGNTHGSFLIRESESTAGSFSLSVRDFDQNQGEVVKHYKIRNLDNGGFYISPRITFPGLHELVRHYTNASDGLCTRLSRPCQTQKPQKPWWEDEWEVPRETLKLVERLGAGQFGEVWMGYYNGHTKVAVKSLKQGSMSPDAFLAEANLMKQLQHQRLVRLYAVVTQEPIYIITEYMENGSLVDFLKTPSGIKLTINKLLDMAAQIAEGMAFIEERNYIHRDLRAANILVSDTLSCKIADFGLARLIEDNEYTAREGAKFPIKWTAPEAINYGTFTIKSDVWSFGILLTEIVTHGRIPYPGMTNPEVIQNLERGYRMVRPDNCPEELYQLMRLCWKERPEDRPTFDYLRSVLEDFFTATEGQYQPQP
Sequence of STK33 (Q9BYT3 whole entry, the tested form may be a part): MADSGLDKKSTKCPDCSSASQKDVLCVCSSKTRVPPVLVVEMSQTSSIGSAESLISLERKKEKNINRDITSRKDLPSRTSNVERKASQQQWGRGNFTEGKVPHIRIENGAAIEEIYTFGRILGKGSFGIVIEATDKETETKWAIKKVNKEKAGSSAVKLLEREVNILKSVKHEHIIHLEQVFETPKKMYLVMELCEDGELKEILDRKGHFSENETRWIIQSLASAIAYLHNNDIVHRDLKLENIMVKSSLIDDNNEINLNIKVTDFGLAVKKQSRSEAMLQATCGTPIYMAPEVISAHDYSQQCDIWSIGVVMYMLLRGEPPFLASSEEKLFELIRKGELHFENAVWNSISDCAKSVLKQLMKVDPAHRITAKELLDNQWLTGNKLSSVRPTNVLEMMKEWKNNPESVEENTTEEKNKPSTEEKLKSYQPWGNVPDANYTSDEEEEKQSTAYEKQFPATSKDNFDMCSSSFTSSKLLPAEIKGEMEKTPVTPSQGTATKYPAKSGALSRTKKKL

`COc1cc(Nc2c(C#N)cnc3cc(OCCCN4CCN(C)CC4)c(OC)cc23)c(Cl)cc1Cl` [Bosutinib, bosutinib] was tested. Which remaining activity at 0.1 µM (BTK [1]; 0.1 µM) did it give?
Its remaining activity at 0.1 µM is 1%.

What about the remaining activity at 1 µM (BTK [1]; 1 µM) of the same molecule?
Its remaining activity at 1 µM is 1%.

And the remaining activity at 0.1 µM (Lck; 0.1 µM)?
The remaining activity at 0.1 µM was 1%.

And the remaining activity at 1 µM (Lck; 1 µM)?
Its remaining activity at 1 µM is 1%.

And the remaining activity at 0.1 µM (BRK; 0.1 µM)?
Its remaining activity at 0.1 µM is 88 ± 11%.

And the remaining activity at 1 µM (BRK; 1 µM)?
The remaining activity at 1 µM was 48%.

What about the remaining activity at 0.1 µM (EPH-B2; 0.1 µM) of the same molecule?
Its remaining activity at 0.1 µM is 1 ± 1%.

And the remaining activity at 1 µM (EPH-B2; 1 µM)?
The remaining activity at 1 µM was 0%.

And the “Activity of Bcr-Abl, Src and Btk in primary mouse macrophages” value (Bcr-Abl, Src and Btk)?
Its value is “completely blocking”.

And the remaining activity at 0.1 µM (STK33; 0.1 µM)?
Its remaining activity at 0.1 µM is 34%.

And the remaining activity at 1 µM (STK33; 1 µM)?
The remaining activity at 1 µM was 17 ± 4%.

And the IC50 (BTK [2])?
Its IC50 is 15 nM.
